Assay results taken from patent US20240018158A1, “BRM TARGETING COMPOUNDS AND ASSOCIATED METHODS OF USE” (Prelude Therapeutics Incorporated, priority 2020, published 2024).

How the values were obtained:
[1] = molecular target: SMARCA2 (Homo sapiens (Human), UniProt P51531); assay: SMARCA2 HiBiT degradation assay in HeLa cells; assay type: cell-based; details: 18 hours; for DC50: read-out: DC50 (SM2-HeLa) SMARCA2 degradation potency; for Dmax: read-out: Dmax % (SM2-HeLa) maximum SMARCA2 degradation within the concentrations tested
Chain of SMARCA2 (P51531 whole entry): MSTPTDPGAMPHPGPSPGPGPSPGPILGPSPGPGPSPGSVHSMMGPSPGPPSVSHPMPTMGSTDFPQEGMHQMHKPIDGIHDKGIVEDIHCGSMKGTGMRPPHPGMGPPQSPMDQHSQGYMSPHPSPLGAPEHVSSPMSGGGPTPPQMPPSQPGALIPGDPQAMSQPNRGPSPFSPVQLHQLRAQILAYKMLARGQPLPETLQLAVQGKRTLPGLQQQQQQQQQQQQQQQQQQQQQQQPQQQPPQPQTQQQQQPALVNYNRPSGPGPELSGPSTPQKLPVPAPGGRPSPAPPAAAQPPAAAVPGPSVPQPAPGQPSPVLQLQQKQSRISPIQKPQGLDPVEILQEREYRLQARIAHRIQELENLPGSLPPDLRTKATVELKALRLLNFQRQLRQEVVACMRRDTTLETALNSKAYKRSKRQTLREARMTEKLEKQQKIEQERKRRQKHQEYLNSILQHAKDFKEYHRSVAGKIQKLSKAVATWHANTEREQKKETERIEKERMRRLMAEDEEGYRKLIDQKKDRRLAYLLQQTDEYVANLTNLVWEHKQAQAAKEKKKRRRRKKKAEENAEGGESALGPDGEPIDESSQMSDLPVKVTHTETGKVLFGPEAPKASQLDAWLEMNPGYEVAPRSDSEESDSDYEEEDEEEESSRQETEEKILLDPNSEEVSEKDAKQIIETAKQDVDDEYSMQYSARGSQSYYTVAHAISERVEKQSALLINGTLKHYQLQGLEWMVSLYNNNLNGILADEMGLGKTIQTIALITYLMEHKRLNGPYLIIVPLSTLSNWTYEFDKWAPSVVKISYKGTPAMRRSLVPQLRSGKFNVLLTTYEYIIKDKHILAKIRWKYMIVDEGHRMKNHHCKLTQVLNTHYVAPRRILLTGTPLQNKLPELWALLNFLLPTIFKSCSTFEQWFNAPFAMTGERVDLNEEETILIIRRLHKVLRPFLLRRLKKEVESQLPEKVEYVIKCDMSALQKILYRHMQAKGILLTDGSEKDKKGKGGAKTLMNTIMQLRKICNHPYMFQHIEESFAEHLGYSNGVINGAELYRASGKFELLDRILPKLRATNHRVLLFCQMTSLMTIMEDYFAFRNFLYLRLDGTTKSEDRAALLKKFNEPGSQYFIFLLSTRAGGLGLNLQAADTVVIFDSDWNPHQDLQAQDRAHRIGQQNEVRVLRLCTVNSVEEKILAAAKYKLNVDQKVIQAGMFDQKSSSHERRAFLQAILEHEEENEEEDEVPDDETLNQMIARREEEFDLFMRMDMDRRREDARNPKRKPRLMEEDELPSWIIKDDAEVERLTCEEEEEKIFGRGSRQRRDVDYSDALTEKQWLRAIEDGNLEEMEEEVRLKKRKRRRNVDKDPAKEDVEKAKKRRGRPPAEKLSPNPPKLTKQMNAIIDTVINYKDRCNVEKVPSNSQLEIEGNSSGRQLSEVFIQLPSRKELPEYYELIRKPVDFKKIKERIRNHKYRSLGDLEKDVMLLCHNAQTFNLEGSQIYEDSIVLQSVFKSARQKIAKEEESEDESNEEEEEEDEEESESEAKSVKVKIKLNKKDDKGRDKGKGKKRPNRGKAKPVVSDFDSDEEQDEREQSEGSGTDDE
In short: (§1)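 HeLa monoclonal lines carrying a heterozygous HiBiT knock-in on SMARCA2 or SMARCA4 were seeded at 2500 cells/well in EMEM with 10% FBS. After 18 h compound exposure at 37 °C, Nano-Glo HiBiT lytic detection ran 30-60 min at RT before the luminescence read. Values are from curve fits.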

[2] = molecular target: SMARCA4 (Homo sapiens (Human), UniProt P51532); assay: SMARCA4 HiBiT degradation assay in HeLa cells; assay type: cell-based; details: 18 hours; for DC50: read-out: DC50 (SM4-HeLa) SMARCA4 degradation potency; for Dmax: HeLa, read-out: Dmax % (SM4-HeLa) maximum SMARCA4 degradation within the concentrations tested
Chain of SMARCA4 (P51532 whole entry): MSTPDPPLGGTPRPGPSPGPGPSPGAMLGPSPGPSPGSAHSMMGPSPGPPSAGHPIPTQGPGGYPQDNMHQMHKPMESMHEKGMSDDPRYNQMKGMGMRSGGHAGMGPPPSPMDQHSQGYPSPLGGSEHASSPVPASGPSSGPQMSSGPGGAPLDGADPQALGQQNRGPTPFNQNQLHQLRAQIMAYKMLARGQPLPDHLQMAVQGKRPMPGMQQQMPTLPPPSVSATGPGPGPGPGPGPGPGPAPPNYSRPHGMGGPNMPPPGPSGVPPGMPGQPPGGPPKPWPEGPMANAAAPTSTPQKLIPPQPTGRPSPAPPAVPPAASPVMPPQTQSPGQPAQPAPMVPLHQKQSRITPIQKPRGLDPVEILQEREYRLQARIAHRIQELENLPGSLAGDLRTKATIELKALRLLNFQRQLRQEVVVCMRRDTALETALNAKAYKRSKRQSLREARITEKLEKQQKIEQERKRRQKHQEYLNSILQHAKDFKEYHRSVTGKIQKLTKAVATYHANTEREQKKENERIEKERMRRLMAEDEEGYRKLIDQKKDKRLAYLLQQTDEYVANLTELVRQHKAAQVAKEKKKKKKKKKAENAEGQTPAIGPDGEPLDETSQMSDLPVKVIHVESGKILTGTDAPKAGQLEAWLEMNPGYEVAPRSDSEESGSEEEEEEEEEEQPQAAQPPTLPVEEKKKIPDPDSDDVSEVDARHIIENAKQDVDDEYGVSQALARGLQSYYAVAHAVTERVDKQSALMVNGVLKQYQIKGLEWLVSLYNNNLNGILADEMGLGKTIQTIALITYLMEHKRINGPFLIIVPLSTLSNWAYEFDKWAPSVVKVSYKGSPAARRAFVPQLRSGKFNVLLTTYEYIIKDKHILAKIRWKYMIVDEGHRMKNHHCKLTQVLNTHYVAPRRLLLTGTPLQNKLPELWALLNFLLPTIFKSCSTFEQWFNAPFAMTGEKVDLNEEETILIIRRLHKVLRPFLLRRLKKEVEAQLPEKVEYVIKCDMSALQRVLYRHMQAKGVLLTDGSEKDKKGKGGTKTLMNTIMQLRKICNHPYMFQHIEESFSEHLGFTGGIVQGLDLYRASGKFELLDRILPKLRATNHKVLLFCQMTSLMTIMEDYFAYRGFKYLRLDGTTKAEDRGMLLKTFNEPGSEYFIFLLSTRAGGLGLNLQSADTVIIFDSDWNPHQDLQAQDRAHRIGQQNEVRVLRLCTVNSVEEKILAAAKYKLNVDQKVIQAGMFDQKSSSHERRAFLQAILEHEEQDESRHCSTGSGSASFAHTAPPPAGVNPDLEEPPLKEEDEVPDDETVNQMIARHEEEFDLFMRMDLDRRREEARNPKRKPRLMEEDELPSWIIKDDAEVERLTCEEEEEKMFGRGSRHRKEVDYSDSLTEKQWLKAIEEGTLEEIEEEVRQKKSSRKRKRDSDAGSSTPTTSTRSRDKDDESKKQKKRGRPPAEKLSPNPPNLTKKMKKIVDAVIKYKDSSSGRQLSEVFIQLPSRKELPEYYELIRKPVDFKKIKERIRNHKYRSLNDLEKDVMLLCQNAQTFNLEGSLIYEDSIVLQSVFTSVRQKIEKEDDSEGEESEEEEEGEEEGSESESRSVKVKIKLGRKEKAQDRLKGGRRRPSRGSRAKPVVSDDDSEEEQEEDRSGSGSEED
In short: as §1

Compound	DC50 [1]	Dmax [1]	DC50 [2]	Dmax [2]
Cc1ncsc1-c1ccc([C@H](C)NC(=O)[C@@H]2C[C@@H](O)CN2C(=O)[C@@H](c2cc(OCCN3CCC(N4CCN5c6cc(-c7ccccc7O)nnc6NC[C@H]5C4)C(C)C3)no2)C(C)C)cc1 (single isomer, unassigned) [Example 55]	< 100 nM	> 75%	< 100 nM	> 75%
Cc1ncsc1-c1ccc([C@H](C)NC(=O)[C@@H]2C[C@@H](O)CN2C(=O)[C@@H](c2cc(OCCN3CCN4c5cc(-c6ccccc6O)nnc5NC(C)C4C3)no2)C(C)C)cc1 (stereo partly drawn) [Example 95, (2S,4R)-4-hydroxy-1-((2R)-2-(3-(2-(2-(2-hydroxyphenyl)-6-methyl-5,6,6a,7,9,10-hexahydro-8H-pyrazino[1′,2′:4,5]pyrazino[2,3-c]pyridazin-8-yl)ethoxy)isoxazol-5-yl)-3-methylbutanoyl)-N-((S)-1-(4-(4-methylthiazol-5-yl)phenyl)ethyl)pyrrolidine-2-carboxamide]	< 100 nM	> 75%	< 100 nM	> 75%
Cc1ncsc1-c1ccc([C@H](C)NC(=O)[C@@H]2C[C@@H](O)CN2C(=O)[C@@H](c2cc(OCCN3CCC(N4CCN5c6cc(-c7ccccc7O)nnc6NC[C@H]5C4)CC3C)no2)C(C)C)cc1 (stereo partly drawn) [Example 54, (2S,4R)-4-hydroxy-1-((2R)-2-(3-(2-(4-((S)-2-(2-hydroxyphenyl)-5,6,6a,7,9,10-hexahydro-8H-pyrazino[1′,2′:4,5]pyrazino[2,3-c]pyridazin-8-yl)-2-methylpiperidin-1-yl)ethoxy)isoxazol-5-yl)-3-methylbutanoyl)-N-((S)-1-(4-(4-methylthiazol-5-yl)phenyl)ethyl)pyrrolidine-2-carboxamide]	< 100 nM	> 75%	< 100 nM	> 75%
Cc1ncsc1-c1ccc([C@H](C)NC(=O)[C@@H]2C[C@@H](O)CN2C(=O)[C@@H](c2cc(CCCN3CCCC(N4CCN5c6cc(-c7ccccc7O)nnc6NC[C@H]5C4)C3)no2)C(C)C)cc1 (stereo partly drawn) [Example 45, (2S,4R)-4-hydroxy-1-((2R)-2-(3-(3-(3-((S)-2-(2-hydroxyphenyl)-5,6,6a,7,9,10-hexahydro-8H-pyrazino[1′,2′:4,5]pyrazino[2,3-c]pyridazin-8-yl)piperidin-1-yl)propyl)isoxazol-5-yl)-3-methylbutanoyl)-N-((S)-1-(4-(4-methylthiazol-5-yl)phenyl)ethyl)pyrrolidine-2-carboxamide]	< 100 nM	> 75%	< 100 nM	50 to 75%
Cc1ncsc1-c1ccc([C@H](C)NC(=O)[C@@H]2C[C@@H](O)CN2C(=O)[C@@H](c2cc(OCCN3CCC(CN4CCN5c6cc(-c7ccccc7O)nnc6NC[C@H]5C4)CC3)no2)C(C)C)cc1 [Example 38, (2S,4R)-4-hydroxy-1-((R)-2-(3-(2-(4-(((S)-2-(2-hydroxyphenyl)-5,6,6a,7,9,10-hexahydro-8H-pyrazino[1′,2′:4,5]pyrazino[2,3-c]pyridazin-8-yl)methyl)piperidin-1-yl)ethoxy)isoxazol-5-yl)-3-methylbutanoyl)-N-((S)-1-(4-(4-methylthiazol-5-yl)phenyl)ethyl)pyrrolidine-2-carboxamide]	< 100 nM	> 75%	< 100 nM	> 75%
Cc1ncsc1-c1ccc([C@H](C)NC(=O)[C@@H]2C[C@@H](O)CN2C(=O)[C@@H](c2cc(CCCN(C)CCN3CCN4c5cc(-c6ccccc6O)nnc5NC[C@H]4C3)no2)C(C)C)cc1 [Example 92, (2S,4R)-4-hydroxy-1-((R)-2-(3-(3-((2-((S)-2-(2-hydroxyphenyl)-5,6,6a,7,9,10-hexahydro-8H-pyrazino[1′,2′:4,5]pyrazino[2,3-c]pyridazin-8-yl)ethyl)(methyl)amino)propyl)isoxazol-5-yl)-3-methylbutanoyl)-N-((S)-1-(4-(4-methylthiazol-5-yl)phenyl)ethyl)pyrrolidine-2-carboxamide]	< 100 nM	> 75%	≥ 10000 nM	≤ 50%
